Data reported in US8889591B2, “Herbicidal compositions comprising 4-amino-3-chloro-5-fluoro-6-(4-chloro-2-fluoro-3-methoxyphenyl)pyridine-2-carboxylic acid or a derivative thereof and bromobutide, daimuron, oxaziclomefone or pyributicarb” (Dow Agrosciences LLC, priority 2012, dated 2014).

System: FIMMI
Assay: In-water applied greenhouse weed control, transplanted paddy rice system
Assay type: in vivo, Fimbristylis miliacea (L.) Vahl
Conditions: in-water application
Method: Weed seeds or nutlets of the desired test plant species were planted in puddled soil (mud) prepared by mixing a shredded, non-sterilized mineral soil (50.5 percent silt, 25.5 percent clay, and 24 percent sand, with a pH of about 7.6 and an organic matter content of about 2.9 percent) and water at a 1:1 volumetric ratio. The prepared mud was dispensed in 365 mL aliquots into 16-ounce (oz.) non-perforated plastic pots with a surface area of 86.59 square centimeters (cm^2) leaving a headspace of 3 centimeters (cm) in each pot. Mud was allowed to dry overnight prior to planting or transplanting. Rice seeds were planted in Sun Gro MetroMix® 306 planting mixture, which typically has a pH of 6.0 to 6.8 and an organic matter content of about 30 percent, in plastic plug trays. Seedlings at the second or third leaf stage of growth were transplanted into 840 mL of mud contained in 32-oz. non-perforated plastic pots with a surface area of 86.59 cm^2 4 days prior to herbicide application. The paddy was created by filling the headspace of the pots with 2.5 to 3 cm of water. When required to ensure good germination and healthy plants, a fungicide treatment and/or other chemical or physical treatment was applied. The plants were grown for 4-22 days in a greenhouse with an approximate 14 h photoperiod which was maintained at about 29° C. during the day and 26° C. during the night. Nutrients were added as Osmocote® (19:6:12, N:P:K+ minor nutrients) at 2 g per 16-oz. pot and 4 g per 32-oz. pot. Water was added on a regular basis to maintain the paddy flood, and supplemental lighting was provided with overhead metal halide 1000-Watt lamps as necessary. The plants were employed for testing when they reached the first through fourth true leaf stage.
Treatments consisted of the acid or esters of 4-amino-3-chloro-5-fluoro-6-(4-chloro-2-fluoro-3-methoxy-phenyl)pyridine-2-carboxylic acid (compound A) each formulated as an SC and various herbicidal components alone and in combination. Forms of compound A were applied on an acid equivalent basis.
Other herbicidal components were applied on an active ingredient basis and included daimuron formulated as an EC, bromobutide (technical grade material), and oxaziclomefone (technical grade material).
Treatment requirements for each compound or herbicidal component were calculated based upon the rates being tested, the concentration of active ingredient or acid equivalent in the formulation, an application volume of 2 mL per component per pot, and an application area of 86.59 cm^2 per pot.
For formulated compounds, a measured amount was placed in an individual 100 or 200 mL glass vial and was dissolved in a volume of 1.25% (v/v) Agri-Dex® crop oil concentrate to obtain application solutions.
For technical grade compounds, a weighed amount was placed in an individual 100 to 200 mL glass vial and was dissolved in a volume of acetone to obtain concentrated stock solutions. […] The concentrated stock solutions obtained were diluted with an equivalent volume of an aqueous mixture containing 2.5% (v/v) crop oil concentrate so that the final application solutions contained 1.25% (v/v) crop oil concentrate.
Applications were made by injecting, with a pipetter, appropriate amounts of the application solutions, individually and sequentially, into the aqueous layer of the paddy. Control plants were treated in the same manner with the solvent blank. Applications were made so that all treated plant material received the same concentrations of acetone and crop oil concentrate.
The treated plants and control plants were placed in a greenhouse as described above and water was added as needed to maintain a paddy flood. After approximately 3 weeks the condition of the test plants as compared with that of the untreated plants was determined visually and scored on a scale of 0 to 100 percent where 0 corresponds to no injury or growth inhibition and 100 corresponds to complete kill. […]

[1] = Compound A Benzyl Ester 8 gae/ha alone
[2] = Compound A Benzyl Ester 16 gae/ha alone

## COc1c(Cl)ccc(-c2nc(C(=O)OCc3ccccc3)c(Cl)c(N)c2F)c1F [Compound A Benzyl Ester]
[1]
  Visual Weed Control (%) - 19 DAA FIMMI Obs: 0%
  Visual Weed Control (%) - 21 DAA FIMMI Obs: 15%
[2]
  Visual Weed Control (%) - 19 DAA FIMMI Obs: 0%
  Visual Weed Control (%) - 21 DAA FIMMI Obs: 65%
Compound A Benzyl Ester 32 gae/ha alone
  Visual Weed Control (%) - 21 DAA FIMMI Obs: 75%
